Test results: US20250236608A1, “EGFR INHIBITORS” (Blueprint Medicines Corporation, priority 2022, published 2025)

Legend:
[1] = biological target: EGFR (d746-750) (Homo sapiens (Human), UniProt P00533, DEL746-750); test: Biochemical EGFR inhibition assay, EGFR (d746-750); settings: Caliper mobility shift; 1.0 mM ATP or ATP Km; read-out: Enz EGFR_Exon19-del746-750 IC50
[2] = biological target: pEGFR (Tyr1068) in PC-9 cells (Ex19Del) (Homo sapiens (Human), UniProt P00533, DEL746-750); test: PC-9 pEGFR AlphaLISA assay; assay type: cell-based; settings: 4 hours incubation, p-EGFR (Tyr1068) AlphaLISA, read-out: Ext pEGFR_PC-9 Ex19Del IC50
Chain of pEGFR (Tyr1068) in PC-9 cells (Ex19Del) (P00533 other isoform, or with tags, fused parts or gaps del 746-750): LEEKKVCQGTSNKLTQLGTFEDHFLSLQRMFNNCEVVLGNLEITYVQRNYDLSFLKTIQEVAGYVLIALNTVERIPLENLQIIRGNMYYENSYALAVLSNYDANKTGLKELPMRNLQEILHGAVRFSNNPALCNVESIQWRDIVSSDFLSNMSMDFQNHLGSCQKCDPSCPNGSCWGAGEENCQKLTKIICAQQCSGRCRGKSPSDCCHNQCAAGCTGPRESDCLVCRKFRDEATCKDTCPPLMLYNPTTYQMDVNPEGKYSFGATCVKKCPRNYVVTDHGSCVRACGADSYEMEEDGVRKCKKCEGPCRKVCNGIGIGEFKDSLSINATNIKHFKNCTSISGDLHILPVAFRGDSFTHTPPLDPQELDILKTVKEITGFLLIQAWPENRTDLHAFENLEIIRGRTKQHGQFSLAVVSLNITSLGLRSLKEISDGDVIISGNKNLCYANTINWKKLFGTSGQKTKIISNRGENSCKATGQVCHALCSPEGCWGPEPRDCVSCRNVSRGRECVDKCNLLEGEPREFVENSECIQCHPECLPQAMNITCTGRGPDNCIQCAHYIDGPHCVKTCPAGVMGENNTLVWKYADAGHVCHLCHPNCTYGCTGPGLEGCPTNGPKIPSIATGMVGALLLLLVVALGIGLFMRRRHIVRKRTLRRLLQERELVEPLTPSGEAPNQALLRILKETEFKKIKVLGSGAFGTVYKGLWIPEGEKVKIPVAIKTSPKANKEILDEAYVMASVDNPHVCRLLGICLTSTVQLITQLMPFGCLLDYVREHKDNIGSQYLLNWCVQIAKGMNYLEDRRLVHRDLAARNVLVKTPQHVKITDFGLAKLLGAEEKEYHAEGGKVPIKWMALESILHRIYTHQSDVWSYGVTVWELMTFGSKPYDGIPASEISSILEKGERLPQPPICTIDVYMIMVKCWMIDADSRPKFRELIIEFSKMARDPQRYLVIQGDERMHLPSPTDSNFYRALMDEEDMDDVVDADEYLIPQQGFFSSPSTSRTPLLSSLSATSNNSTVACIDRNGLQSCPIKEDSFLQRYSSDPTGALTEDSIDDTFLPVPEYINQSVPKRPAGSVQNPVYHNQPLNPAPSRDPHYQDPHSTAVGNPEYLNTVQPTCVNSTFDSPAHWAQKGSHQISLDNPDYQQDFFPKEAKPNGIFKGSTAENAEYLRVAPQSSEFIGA
How it was run: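 Phospho-EGFR (Tyr1068) was quantified by AlphaLISA SureFire Ultra in lysates of PC-9 cells exposed for 4 h to compound (4-fold, 10-point dilutions).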

[3] = biological target: EGFR L858R (Homo sapiens (Human), UniProt P00533, L858R); test: Biochemical EGFR inhibition assay, EGFR L858R; settings: Caliper mobility shift; 1.0 mM ATP or ATP Km; read-out: Enz EGFR_L858R IC50
Chain of EGFR L858R (P00533 25-1210 L858R): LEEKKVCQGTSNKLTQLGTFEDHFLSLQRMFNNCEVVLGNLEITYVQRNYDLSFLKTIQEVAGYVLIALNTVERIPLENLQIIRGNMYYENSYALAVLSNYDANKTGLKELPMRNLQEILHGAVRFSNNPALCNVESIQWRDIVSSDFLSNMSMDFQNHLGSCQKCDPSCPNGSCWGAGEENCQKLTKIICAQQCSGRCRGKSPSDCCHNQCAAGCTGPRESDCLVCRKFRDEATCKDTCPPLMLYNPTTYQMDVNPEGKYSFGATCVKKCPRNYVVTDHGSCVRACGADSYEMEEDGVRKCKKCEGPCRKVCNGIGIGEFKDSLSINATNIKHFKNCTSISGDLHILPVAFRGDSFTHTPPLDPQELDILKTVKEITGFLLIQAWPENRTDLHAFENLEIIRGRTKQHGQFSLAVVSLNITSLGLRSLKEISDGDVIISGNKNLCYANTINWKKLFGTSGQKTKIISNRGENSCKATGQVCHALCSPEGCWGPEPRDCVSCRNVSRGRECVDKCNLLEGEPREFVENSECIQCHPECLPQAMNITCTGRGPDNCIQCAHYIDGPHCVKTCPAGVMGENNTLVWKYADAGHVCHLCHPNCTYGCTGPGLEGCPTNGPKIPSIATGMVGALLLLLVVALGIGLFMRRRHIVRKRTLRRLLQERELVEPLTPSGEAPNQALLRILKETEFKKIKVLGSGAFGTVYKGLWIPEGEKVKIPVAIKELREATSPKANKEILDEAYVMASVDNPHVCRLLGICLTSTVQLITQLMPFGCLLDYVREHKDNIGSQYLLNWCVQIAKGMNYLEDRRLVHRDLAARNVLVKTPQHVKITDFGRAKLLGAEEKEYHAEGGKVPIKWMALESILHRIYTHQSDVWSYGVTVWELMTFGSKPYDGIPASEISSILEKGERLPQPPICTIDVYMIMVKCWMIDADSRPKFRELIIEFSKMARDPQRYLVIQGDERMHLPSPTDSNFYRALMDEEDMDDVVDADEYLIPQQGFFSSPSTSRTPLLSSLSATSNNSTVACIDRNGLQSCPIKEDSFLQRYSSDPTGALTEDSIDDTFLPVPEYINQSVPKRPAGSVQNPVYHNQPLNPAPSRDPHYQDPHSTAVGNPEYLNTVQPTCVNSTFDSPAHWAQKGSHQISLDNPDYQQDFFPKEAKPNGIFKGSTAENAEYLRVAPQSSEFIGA

Chain of EGFR (d746-750) (P00533 other isoform, or with tags, fused parts or gaps del 1-694/del 746-750 limits assumed): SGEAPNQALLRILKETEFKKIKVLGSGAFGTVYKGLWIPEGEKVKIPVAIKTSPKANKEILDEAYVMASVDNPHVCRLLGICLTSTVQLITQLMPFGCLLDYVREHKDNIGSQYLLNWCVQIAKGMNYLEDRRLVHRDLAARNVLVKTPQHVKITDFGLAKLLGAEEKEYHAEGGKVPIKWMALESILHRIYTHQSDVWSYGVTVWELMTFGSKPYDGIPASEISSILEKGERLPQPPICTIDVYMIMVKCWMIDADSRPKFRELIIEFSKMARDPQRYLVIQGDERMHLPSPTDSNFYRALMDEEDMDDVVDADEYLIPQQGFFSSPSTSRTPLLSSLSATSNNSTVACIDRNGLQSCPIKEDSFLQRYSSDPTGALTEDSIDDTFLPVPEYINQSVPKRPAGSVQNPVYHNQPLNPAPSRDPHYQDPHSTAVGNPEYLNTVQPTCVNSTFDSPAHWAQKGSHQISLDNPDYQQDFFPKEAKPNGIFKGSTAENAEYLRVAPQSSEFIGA

Structure (SMILES) | IC50 [1] [nM] | IC50 [2] [nM] | IC50 [3] [nM]
COc1cc2ncnc(-c3cn(C)nc3-c3ccccc3)c2cc1NC(=O)c1cnc(C2CC2)s1 [Example 209, 2-cyclopropyl-N-(7-methoxy-4-(1-methyl-3-phenyl-1H-pyrazol-4-yl)quinazolin-6-yl)thiazole-5-carboxamide] | 0.8 | 0.9 | 1.5
COc1cc2ncnc(-c3cn(C)nc3-c3ccccc3)c2nc1NC(=O)[C@@]12C[C@@H]1CN(C)C2 (single isomer, unassigned) [Example 392, (1S,5S)—N-(7-methoxy-4-(1-methyl-3-phenyl-1H-pyrazol-4-yl)pyrido[3,2-d]pyrimidin-6-yl)-3-methyl-3-azabicyclo[3.1.0]hexane-1-carboxamide or (1R,5R)—N-(7-methoxy-4-(1-methyl-3-phenyl-1H-pyrazol-4-yl)pyrido[3,2-d]pyrimidin-6-yl)-3-methyl-3-azabicyclo[3.1.0]hexane-1-carboxamide] | 2.2 | 5.9 | 6.1
COc1cc2ncnc(-c3cn(C)nc3-c3ccc(F)cc3F)c2nc1NC(=O)[C@@]12C[C@@H]1CN(C)C2 (single isomer, unassigned) [Example 423, (1S,5S)—N-(4-(3-(2,4-difluorophenyl)-1-methyl-1H-pyrazol-4-yl)-7-methoxypyrido[3,2-d]pyrimidin-6-yl)-3-methyl-3-azabicyclo[3.1.0]hexane-1-carboxamide or (1R,5R)—N-(4-(3-(2,4-difluorophenyl)-1-methyl-1H-pyrazol-4-yl)-7-methoxypyrido[3,2-d]pyrimidin-6-yl)-3-methyl-3-azabicyclo[3.1.0]hexane-1-carboxamide] | 1.6 | 3.8 | 4.1
COc1cc2ncnc(-c3cn(C)nc3-c3ccccc3)c2nc1NC(=O)[C@]1(C(F)(F)F)CCCN1C (single isomer, unassigned) [Example 430, (S)—N-(7-methoxy-4-(1-methyl-3-phenyl-1H-pyrazol-4-yl)pyrido[3,2-d]pyrimidin-6-yl)-1-methyl-2-(trifluoromethyl) pyrrolidine-2-carboxamide or (R)—N-(7-methoxy-4-(1-methyl-3-phenyl-1H-pyrazol-4-yl)pyrido[3,2-d]pyrimidin-6-yl)-1-methyl-2-(trifluoromethyl) pyrrolidine-2-carboxamide] | 3.7 | 16 | 19
CCCn1cc(-c2ncnc3cc(OC)c(NC(=O)c4ccc(C5CC5)nc4)cc23)c(-c2ccccc2)n1 [Example 301, 6-cyclopropyl-N-(7-methoxy-4-(3-phenyl-1-propyl-1H-pyrazol-4-yl)quinazolin-6-yl)nicotinamide] | 2 | 0.8 | 2.7
COc1cc2ncnc(-c3cn(C)nc3-c3ccccc3)c2nc1OC(=O)N1CCOC[C@H]1C [Example 56, 7-methoxy-4-(1-methyl-3-phenyl-1H-pyrazol-4-yl)pyrido[3,2-d]pyrimidin-6-yl (R)-3-methylmorpholine-4-carboxylate] | 2.1 | 3 | 3.4

Other lines, results leading:

IC50 [1] [nM] | IC50 [2] [nM] | IC50 [3] [nM] | Structure (SMILES)
0.7 | 1.6 | 1.1 | COc1cc2ncnc(-c3cn(C)nc3-c3ccccc3)c2cc1NC(=O)c1ncccn1 [Example 192, N-(7-methoxy-4-(1-methyl-3-phenyl-1H-pyrazol-4-yl)quinazolin-6-yl)pyrimidine-2-carboxamide]
1 | 2.7 | 1.8 | COc1cc2ncnc(-c3cn(C)nc3-c3ccccc3)c2nc1NC(=O)c1cnn(C(F)(F)F)c1 [Example 360, N-(7-methoxy-4-(1-methyl-3-phenyl-1H-pyrazol-4-yl)pyrido[3,2-d]pyrimidin-6-yl)-1-(trifluoromethyl)-1H-pyrazole-4-carboxamide]
0.5 | 1.1 | 1 | COc1cc2ncnc(-c3cn(C)nc3-c3ccccc3)c2cc1NC(=O)c1cnn(C)c1 [Example 294, N-(7-methoxy-4-(1-methyl-3-phenyl-1H-pyrazol-4-yl)quinazolin-6-yl)-1-methyl-1H-pyrazole-4-carboxamide]
